The values below come from patent US11040976B2, “Substrate selective inhibitors of insulin-degrading enzyme (IDE) and uses thereof” (President and Fellows of Harvard College, priority 2015, dated 2021).

For experiment [1], the target named is T1, Human N-His6-IDE42-1019 (E. coli expressed) (Homo sapiens, UniProt P14735).
T1 construct: Human N-His6-IDE42-1019 (E. coli expressed); made in house; host or cells: E. coli (Rosetta 2 (DE3) pLysS, plasmid pTrcHis-A)
T1 sequence (P14735 42-1019): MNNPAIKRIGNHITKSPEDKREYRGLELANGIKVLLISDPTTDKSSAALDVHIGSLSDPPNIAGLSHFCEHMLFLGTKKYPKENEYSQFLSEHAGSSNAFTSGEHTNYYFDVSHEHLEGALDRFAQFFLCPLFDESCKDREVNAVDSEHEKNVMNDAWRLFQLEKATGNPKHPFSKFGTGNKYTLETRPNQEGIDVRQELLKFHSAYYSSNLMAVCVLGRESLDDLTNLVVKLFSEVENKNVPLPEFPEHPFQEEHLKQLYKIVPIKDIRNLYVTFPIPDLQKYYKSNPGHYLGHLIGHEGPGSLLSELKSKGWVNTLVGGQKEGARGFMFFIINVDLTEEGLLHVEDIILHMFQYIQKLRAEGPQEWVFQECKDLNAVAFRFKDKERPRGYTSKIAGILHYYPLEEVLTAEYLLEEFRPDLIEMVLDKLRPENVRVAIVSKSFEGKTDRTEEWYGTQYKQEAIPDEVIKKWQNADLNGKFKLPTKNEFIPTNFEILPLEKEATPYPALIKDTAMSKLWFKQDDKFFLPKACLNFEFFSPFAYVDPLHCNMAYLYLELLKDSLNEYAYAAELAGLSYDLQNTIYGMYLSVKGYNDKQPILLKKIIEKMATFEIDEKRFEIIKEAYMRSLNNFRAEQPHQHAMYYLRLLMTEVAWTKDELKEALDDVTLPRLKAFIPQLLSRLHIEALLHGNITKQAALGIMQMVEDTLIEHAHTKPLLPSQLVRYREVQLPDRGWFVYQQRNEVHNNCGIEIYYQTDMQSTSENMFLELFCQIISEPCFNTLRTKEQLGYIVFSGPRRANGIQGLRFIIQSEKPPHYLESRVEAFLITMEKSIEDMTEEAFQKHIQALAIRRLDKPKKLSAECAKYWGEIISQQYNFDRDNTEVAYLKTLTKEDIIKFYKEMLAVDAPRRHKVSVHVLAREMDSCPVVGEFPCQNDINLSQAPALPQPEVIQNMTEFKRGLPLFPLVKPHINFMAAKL
Description: Fluorescence anisotropy high-throughput screening assay (displacement of probe FL-6b). The class given is binding. The procedure:
The fluorescence anisotropy screening method and probe FL-6b are described in PCT application PCT/US2014/064322, incorporated herein by reference.
Human N-His6-IDE42-1019 (E. coli expressed) was mixed with fluorescein-labeled macrocycle FL-6b:
[drawing 802] in 50 mM Tris buffer pH 8.0, with 1 M NaCl, at 25° C. Optimum signal was obtained using a mixture of […] probe FL-6b and 0.5 μM IDE. The “diversity-oriented (DOS) synthesis informer set” compound plates were pinned onto 384-well plates containing the enzyme-probe mixture (50 μL/well). The azetidine screen was pre-printed on 384-well plates and the enzyme-probe mixture was added (50 μL/well). The final compound concentration was 20 μM. IDE inhibitor 6bK was used as a positive control at a final concentration of 1 μM. After 30 minutes of equilibration, the increase in fluorescence anisotropy was recorded using an EnVision spectrophotometer (excitation 492 nm, emission 523 nm). The fluorescence anisotropy was independently measured twice for each screened compound. The Z-scores for each pair of measurements are plotted in FIG. 1A (DOS informer set) and FIG. 1B (azetidines), and average Z-scores are listed for exemplary compounds in Table E1.
Z-scores were calculated based on the raw anisotropy measured for each well according to Eq. 1, wherein x is the raw anisotropy value of the well, μ is the mean of the anisotropy of the negative control wells (DMSO) for the plate, and σ is the standard deviation in anisotropy of the negative control wells (DMSO) for the plate.

For experiment [2], the target named is T2, recombinant human IDE42-1019 (Homo sapiens, UniProt P14735).
T2 construct: recombinant human IDE42-1019 (R&D Systems); purchased R&D Systems
T2 sequence (P14735 42-1019): T1 sequence (P14735 42-1019)
Description: Protease assay with fluorogenic peptide substrate Mca-[…](Dnp)-OH. The note with it: fluorogenic peptide Mca-RPPGFSAFK(Dnp)-OH; for Emax: plateau at high inhibitor concentration, read-out: Imax (%) Proteolysis (inhibition maximum); for IC50: apparent IC50 for compounds with submaximal inhibition, read-out: IC50 (μM) Proteolysis. Type of experiment: biochemical.

[3] abbreviates: values marked *: from the screen using the diversity-oriented synthesis (DOS) informer set of plates, 20 μM.
[4] abbreviates: final compound concentration 20 μM (6bK control 1 μM), values without asterisk.

As to `COc1ccccc1C#Cc1ccc([C@H]2[C@H](CO)N3CCCCN(C(=O)C4CCC4)C[C@@H]23)cc1` [compound 180], the “Average Z-score (Fluorescence anisotropy)” value (shortened to “Average Z-score”) in experiment [1] (setting [3]) is −12.26*. Moreover, in experiment [2], the Emax amounted to 80%.
Take `Cc1cccc(-c2ccc([C@@H]3[C@@H](CO)N4CCCCN(C(=O)NC(C)C)C[C@@H]34)cc2)c1` [compound 777]: the “Average Z-score” value in experiment [1] (setting [4]) is −5.51. Besides, the Emax in experiment [2] was 30%.
For `Cc1ccccc1-c1ccc([C@H]2[C@@H](CO)N3CCCCN(C(=O)c4cccnc4)C[C@H]23)cc1` [compound 106], in that order: −16.48 and 80%.
For the compound `Cc1ccccc1-c1ccc([C@H]2[C@@H](CO)N3C(=O)CN(C(=O)Nc4ccc(F)cc4)C[C@H]23)cc1` [compound 510], the “Average Z-score” value in experiment [1] (setting [4]) was −21.34. Besides, in experiment [2], the half-maximal inhibitory concentration (IC50) (commonly the point on the concentration scale where inhibition reaches its midpoint) amounted to 0.5 µM and the Emax came to 30%.
For the compound `Cc1ccccc1-c1ccc([C@H]2[C@@H](CO)N3CCCCN(CC4CC4)C[C@@H]23)cc1` [compound 768], the “Average Z-score” value in experiment [1] (setting [4]) is listed as −3.48. Besides, in experiment [2], the half-inhibitory concentration (IC50) was greater than 100 µM.
For the compound `Cc1ccccc1-c1ccc([C@H]2[C@@H](CO)N3CCCCN(C(=O)Nc4cccc(F)c4)C[C@@H]23)cc1` [compound 269], in experiment [1] (setting [4]), the “Average Z-score” value is given as −4.36. In experiment [2], the Emax was determined as 30%.
In the case of `Cc1ccccc1-c1ccc([C@H]2[C@@H](CO)N3CCCCN(S(C)(=O)=O)C[C@@H]23)cc1` [compound 077], the “Average Z-score” value in experiment [1] (setting [4]) is −2.31. Moreover, the IC50 in experiment [2] was greater than 100 µM.
Take `COc1ccccc1-c1ccc([C@@H]2[C@@H](C#N)N(C(=O)NC3CCCCC3)[C@@H]2CO)cc1` [D8]: the “Average Z-score” value in experiment [1] (setting [4]) was −33.77. Besides, in experiment [2], the IC50 was found to be 1 µM and the Emax was 40%.
`Cc1cccc(-c2ccc([C@@H]3[C@H]4CN(C(=O)c5cccnc5)CC(=O)N4[C@H]3CO)cc2)c1` [compound 838]: the “Average Z-score” value in experiment [1] (setting [4]) is reported as −17.68. Also, the Emax in experiment [2] was 80%.
Consider `Cc1cccc(-c2ccc([C@@H]3[C@@H](CO)N4C(=O)CN(C(=O)NC5CCCCC5)C[C@@H]34)cc2)c1` [compound 904], for which, in experiment [1] (setting [4]), the “Average Z-score” value is recorded as −16.59. The IC50 in experiment [2] was greater than 5 µM.
As to `Cc1ccccc1-c1ccc(C2C3CN(Cc4cncnc4)CC2N3)cc1` (centres unmarked) [C8], the “Average Z-score” value in experiment [1] (setting [4]) was −2.58. In addition, in experiment [2], the concentration for half-maximal inhibition (IC50) was determined as 7.5 µM and the Emax was 70%.
For the compound `Cc1ccccc1-c1ccc([C@H]2[C@H](CO)N3C(=O)CN(C(=O)c4cccnc4)C[C@@H]23)cc1` [compound 491], in experiment [1] (setting [4]), the “Average Z-score” value is −12.38. Moreover, in experiment [2], the 50% inhibitory concentration (IC50) is greater than 10 µM and the Emax came to 70%.
With `Cc1ccccc1-c1ccc([C@H]2[C@@H](CO)N3CCCCN(C(=O)Cc4ccccn4)C[C@@H]23)cc1` [compound 890], in experiment [1] (setting [4]), the “Average Z-score” value is listed as −5.69. Further, in experiment [2], the 50% inhibitory concentration (IC50) is greater than 100 µM.
Regarding `Cc1ccccc1-c1ccc([C@H]2[C@H](CO)N3C(=O)CN(C(=O)Nc4cccc(F)c4)C[C@@H]23)cc1` [compound 534], in experiment [1] (setting [4]), the “Average Z-score” value was −3.03. Further, in experiment [2], the IC50 was found to be 7 µM and the Emax worked out at 70%.
`COC(=O)N1CCCCN2[C@H](CO)[C@@H](c3ccc(-c4cccc(C)c4)cc3)[C@@H]2C1` [compound 559]: in experiment [1] (setting [4]), the “Average Z-score” value is on record as −5.28. The 50% inhibitory concentration (IC50) in experiment [2] is greater than 100 µM.
Regarding `COc1ccccc1NC(=O)N1CCCCN2[C@H](CO)[C@@H](c3ccc(-c4cccc(C)c4)cc3)[C@@H]2C1` [compound 154], in experiment [1] (setting [4]), the “Average Z-score” value is −2.84. For the same compound, in experiment [2], the IC50 was greater than 10 µM and the Emax was 20%.
For `Cc1ccccc1-c1ccc(C2C3CN(C(=O)C4CCCCC4)CC2N3)cc1` (centres unmarked) [C6], in that order: −13.8, 2 µM and 60%.
Take `Cc1cccc(-c2ccc([C@@H]3[C@@H](CO)N4CCCCN(S(=O)(=O)c5cccs5)C[C@@H]34)cc2)c1` [compound 945]: the “Average Z-score” value in experiment [1] (setting [4]) is given as −3.77. In experiment [2], the Emax was found to be 30%.
`Cc1ccccc1-c1ccc([C@@H]2[C@@H](CO)N3C(=O)CN(C(=O)Cc4ccccn4)C[C@@H]23)cc1` [compound 081]: the “Average Z-score” value in experiment [1] (setting [4]) is −19.85. In experiment [2], the 50% inhibitory concentration (IC50) is 2.5 µM and the Emax was found to be 50%.
As to `CCCCC(=O)N1CC(=O)N2[C@@H](CO)[C@@H](c3ccc(C#Cc4cccc(OC)c4)cc3)[C@@H]2C1` [compound 564], the “Average Z-score” value in experiment [1] (setting [4]) is on record as −1.33. Besides, the 50% inhibitory concentration (IC50) in experiment [2] is greater than 100 µM.
In the case of `COc1ccccc1-c1ccc([C@H]2[C@@H](CO)N3CCCCN(C(=O)NC4CCCC4)C[C@H]23)cc1` [compound 439], the “Average Z-score” value in experiment [1] (setting [4]) was −19.08. Also, in experiment [2], the half-inhibitory concentration (IC50) amounted to 2.5 µM and the Emax amounted to 50%.
The corresponding values for `Cc1ccccc1-c1ccc([C@@H]2[C@H]3CN(C(=O)Cc4ccccn4)CC(=O)N3[C@H]2CO)cc1` [compound 140] are −17.72, 2.5 µM and 50%.
As to `COc1cccc(-c2ccc([C@@H]3[C@@H](CO)N4CCCCN(C(=O)Nc5ccncc5)C[C@@H]34)cc2)c1` [compound 433], the “Average Z-score” value in experiment [1] (setting [4]) is −2.37. Besides, the IC50 in experiment [2] was greater than 100 µM.
Turning to `COc1ccccc1-c1ccc([C@H]2[C@H](C#N)N[C@@H]2CO)cc1` [D7], the “Average Z-score” value in experiment [1] (setting [4]) is recorded as −10.49.
For `Cc1ccccc1-c1ccc(C2C3CN(C(=O)c4cnccn4)CC2N3)cc1` (centres unmarked) [C1], the “Average Z-score” value in experiment [1] (setting [4]) is given as −20.0. In addition, in experiment [2], the IC50 was 2 µM and the Emax was 70%.
Consider `Cc1ccccc1-c1ccc([C@@H]2[C@@H](CO)N3CCCCN(C(=O)c4cccnc4)C[C@@H]23)cc1` [compound 353], for which, in experiment [1] (setting [4]), the “Average Z-score” value is −7.98. The Emax in experiment [2] was 50%.
As to `Cc1cccc(-c2ccc([C@@H]3[C@@H](CO)N4CCCCN(S(=O)(=O)c5cccc(C)c5)C[C@@H]34)cc2)c1` [compound 496], the “Average Z-score” value in experiment [1] (setting [4]) is −9.77. Further, in experiment [2], the half-maximal inhibitory concentration (IC50) was 2.5 µM and the Emax worked out at 30%.
In the case of `COc1cccc(C#Cc2ccc([C@@H]3[C@H](CO)N4C(=O)CN(C(=O)Cc5cccnc5)C[C@@H]34)cc2)c1` [compound 089], in experiment [1] (setting [4]), the “Average Z-score” value is −4.11.
Turning to `COc1ccccc1-c1ccc([C@@H]2[C@@H](C#N)N(C(=O)C3CC3)[C@@H]2CO)cc1` [D1], the “Average Z-score” value in experiment [1] (setting [4]) is given as −16.97.
As for `COc1ccccc1C#Cc1ccc([C@@H]2[C@H](CO)N3CCCCN(C(=O)C4CCC4)C[C@@H]23)cc1` [compound 930], the “Average Z-score” value in experiment [1] (setting [3]) was −10.53*.
Still for that read-out and setting: under `Cc1cccc(-c2ccc([C@@H]3[C@@H](CO)N4CCCCN(S(=O)(=O)c5ccccc5F)C[C@@H]34)cc2)c1` [compound 688] stands −27.23*.
Take `CCCNC(=O)N1CC(=O)N2[C@H](CO)[C@H](c3ccc(-c4cccc(C)c4)cc3)[C@@H]2C1` [compound 782]: the “Average Z-score” value in experiment [1] (setting [4]) is reported as −16.08.
Still for that read-out and setting: the same measure for `Cc1ccccc1-c1ccc(C2C3CN(Cc4cccnc4)CC2N3)cc1` (centres unmarked) [C5]: −13.95.
